Assay results reported in article PMC10699557, “A recombinant approach for stapled peptide discovery yields inhibitors of the RAD51 recombinase” (Chemical Science, 2023).
Numbered stars: 1 amine (or outer) side, 2 acyl side, 3 side chain; on linkers, the order of the positions; unused ones are H or OH. Bridge positions count the residues as written; N and C are the ends. Peptide text beside a SMILES is read from it. X1 = Nc1nc(CC[*:1])cc(CC[*:2])n1

How the values were obtained:
[1] = tested on: RAD51:dT60 nucleoprotein filament (full-length human RAD51); assay: Electrophoretic mobility shift assay (EMSA) of nucleoprotein filament disruption; assay type: biochemical; conditions: 5 μM full-length human RAD51, 100 nM FAM-dT60, varying peptide concentrations; 50 mM HEPES pH 7.4, 1 mM ATP
Description: We evaluated the effect of stapled peptides SP2, SP24 and SP30 on the nucleoprotein filament using electrophoretic mobility shift assay (EMSA, Fig. 3D). A fluorescently labelled dT60 oligonucleotide was incubated with full-length RAD51, after which the peptides were added at different concentrations before separating the products on a polyacrylamide gel.
(§1) Isothermal titration calorimetry
(§2) Peptides were resuspended in MilliQ water to 10 times the desired final concentration.
This was then diluted 10x with the ITC buffer to obtain the final titrant solution (20 mM CHES pH 9.5, 150 mM NaCl, 0.1% Tween-20). HumRadA22 was buffer-exchanged on a NAP-5 desalting column (Cytiva) into ITC buffer and protein concentration was adjusted to 10:9 of the desired final value. One ninth volume of MilliQ water was added to the solution to bring the protein concentration to the desired final value, while maintaining identical buffer:MilliQ volume proportions in both the syringe and the cell. ITC was carried out using a Microcal ITC200 or Malvern PEAQ ITC instruments at 25°C with a 5.00 μCal reference power DP value, stirring speed of 500-750 rpm, 2 sec filter period. Injection spacing, speed and volume, cell/syringe concentrations as well as the number of injections were adjusted for each peptide and its binding properties. ITC data were fitted using a single-site binding model using the Microcal ITC data analysis program in the Origin 7.0 package. Data points affected by baseline spikes were omitted from the analysis.
Circular dichroism spectroscopy
(§3) Dried peptides were dissolved in MilliQ water to 0.3 mg/ml, and then two-fold diluted in 20 mM sodium phosphate, pH 7.4, giving a final solution of 0.15 mg/ml peptide in 10 mM sodium phosphate. CD spectra of selected peptides were recorded on an AVIV 410 circular dichroism spectropolarimeter using a 1 mm path length quartz cuvette. […]
(§4) The ability of linear and stapled BRC repeat peptides to dissociate RAD51-ssDNA nucleofilament was evaluated using an electrophoretic mobility shift assay (EMSA). […]

[2] = biological target: HumRadA22 (Pyrococcus furiosus, UniProt O74036); assay: Isothermal titration calorimetry (ITC) of peptide binding; set-up: species or system archaeal RadA mutant with human Rad51 surface residues; conditions: Fig. S3; stapled Arg9-fused peptide
Description: We then evaluated the binding of free peptides to HumRadA22 using FP competition assay and isothermal titration calorimetry (Table 1 and Fig. 3B and C). […] All three peptides SP2, SP24 and SP30 bound with similar low-nanomolar affinities in ITC, and the binding appears to be slightly weaker relative to the linear BRC8-2 template (Fig. 3C).
as §1, §2
This was then diluted 10x with the ITC buffer to obtain the final titrant solution (20 mM CHES pH 9.5, 150 mM NaCl, 0.1% Tween-20). HumRadA22 was buffer-exchanged on a NAP-5 desalting column (Cytiva) into ITC buffer and protein concentration was adjusted to 10:9 of the desired final value. […]
as §3, §4

Row | Structure (SMILES) | Depolymerisation of RAD51 from single-stranded DNA (EMSA) [1] | Binding affinity towards HumRadA22 by ITC (in words) [2]
1 | CC(C)C[C@@H]1NC(=O)[C@H](CCCCN)NC(=O)[C@H](CCCCN)NC(=O)CNC(=O)[C@H](CO)NC(=O)[C@H](C)NC(=O)[C@H]([C@@H](C)O)NC(=O)[C@H](CO)NC(=O)[C@H](Cc2ccccc2)NC(=O)CNC(=O)[C@H](CO)NC(=O)[C@@H](NC(=O)CN)CSCCc2cc(nc(N)n2)CCSC[C@@H](C(=O)N[C@@H](CCC(N)=O)C(=O)N[C@@H](CCCCN)C(=O)N[C@@H](C)C(=O)N[C@H](C(=O)N[C@@H](CCCCN)C(=O)N[C@@H](CC(C)C)C(=O)N[C@@H](Cc2ccccc2)C(=O)N[C@@H](CO)C(=O)NCC(=O)O)C(C)C)NC(=O)[C@H](C)NC(=O)[C@H](CCC(N)=O)NC(=O)[C@H]([C@@H](C)O)NC(=O)[C@H](CO)NC(=O)[C@H](C(C)C)NC(=O)[C@H](CC(N)=O)NC1=O [SP30] (H-GCSGFSTASGKKLNVSTQACQKAVKLFSG-OH; linker 2-20 via X1) | depolymerise RAD51 from single-stranded DNA to similar extent | 
2 | CC(C)C[C@@H]1NC(=O)[C@H](CCCCN)NC(=O)[C@H](CCCCN)NC(=O)CNC(=O)[C@H](CO)NC(=O)[C@H](C)NC(=O)[C@H]([C@@H](C)O)NC(=O)[C@H](CO)NC(=O)[C@H](Cc2ccccc2)NC(=O)CNC(=O)[C@H](CO)NC(=O)[C@@H](NC(=O)CNC(=O)CNC(=O)[C@H](CCCNC(=N)N)NC(=O)[C@H](CCCNC(=N)N)NC(=O)[C@H](CCCNC(=N)N)NC(=O)[C@H](CCCNC(=N)N)NC(=O)[C@H](CCCNC(=N)N)NC(=O)[C@H](CCCNC(=N)N)NC(=O)[C@H](CCCNC(=N)N)NC(=O)[C@H](CCCNC(=N)N)NC(=O)[C@H](CCCNC(=N)N)NC(=O)CN)CSCCc2cc(nc(N)n2)CCSC[C@@H](C(=O)N[C@@H](CCC(N)=O)C(=O)N[C@@H](CCCCN)C(=O)N[C@@H](C)C(=O)N[C@H](C(=O)N[C@@H](CCCCN)C(=O)N[C@@H](CC(C)C)C(=O)N[C@@H](Cc2ccccc2)C(=O)N[C@@H](CO)C(=O)NCC(=O)O)C(C)C)NC(=O)[C@H](C)NC(=O)[C@H](CCC(N)=O)NC(=O)[C@H]([C@@H](C)O)NC(=O)[C@H](CO)NC(=O)[C@H](C(C)C)NC(=O)[C@H](CC(N)=O)NC1=O [SP31] (H-GRRRRRRRRRGGCSGFSTASGKKLNVSTQACQKAVKLFSG-OH; linker 13-31 via X1) |  | high affinity
